Measurements taken from patent US12030877B2, “Prostaglandin E synthase inhibitors and methods for utilizing the same” (University of Kentucky Research Foundation, priority 2016, dated 2024).
Read-outs that look alike come from different tables or passages of the source.

Columns and labels:
[1] = molecular target: T1, mPGES-1 Mouse enzyme (Mus musculus, UniProt Q9JM51); assay: mPGES-1 enzyme activity assay (PGE2 enzyme immunoassay), mouse enzyme; type: biochemical; details: for inhibition at 10 µM: compound at a concentration of 10 μM, read-out: % inhibition of the compound against mPGES-1, Mouse enzyme; for IC50: recombinant microsomal enzyme, means ± SD, triplicate
T1 construct: made in house; host or cells: FreeStyle 293-F cells, crude microsomal preparation
T1 sequence (Q9JM51 1-153): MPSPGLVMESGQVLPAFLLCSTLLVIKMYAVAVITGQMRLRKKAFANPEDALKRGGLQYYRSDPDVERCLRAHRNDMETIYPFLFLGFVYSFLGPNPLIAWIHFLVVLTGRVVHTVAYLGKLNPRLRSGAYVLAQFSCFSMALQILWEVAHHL
Procedure: (§1) Studies were conducted to characterize the inhibitory activity against recombinant mPGES-1 of the compounds synthesized in accordance with Examples 1-4, and disclosed herein.
(§2) Briefly, FreeStyle 293-F cells were cultured following manufacturer's manual in FreeStyle 293 expression medium on orbit rotate shaker in 8% CO2 incubator at 37° C. Cells were transfected with 1.5 μg/mL of mPGES-1/pcDNA3 construct using FreeStyle Max reagent at a cell density of 1×10^6 for 2 days. Transfected cells were collected, washed, and sonicated in TSES buffer (15 mM Tris-HCl, pH 8.0 plus 0.25 M sucrose, 0.1 mM EDTA and 1 mM DTT) on ice. The broken cells were first centrifuged at 12,500×g for 10 min. The supernatant was further centrifuged at 105,000×g for 1 hr at 4° C. The pellet was washed and homogenized in PBS buffer. The crude microsomal mPGES-1 preparation was aliquoted and stored at −80° C. The crude protein concentration was 8 mg/mL.
(§3) The enzyme activity assays were performed on ice in 1.5 ml microfuge tubes by using the expressed mPGES-1. The reaction mixture contained: 0.2 M Na2HPO4/NaH2PO4, pH 7.2, 10 μL; 0.1 M GSH, 2.5 μL; diluted microsomal enzyme (80 μg/mL), 1 μL; PGH2 (0.31 mM in DMF), 5 μL; 1 μL inhibitor; and H2O in a final reaction volume of 100 μL. PGH2 was stored in dry ice and used to initiate the reaction.
(§4) Compounds were incubated with the enzyme for 15 min at room temperature before the addition of cold PGH2 (1 μM final) to initiate the enzyme reaction. After 30 s, 10 μL of SnCl2 (40 mg/mL) in ethanol was added to stop the reaction. The nonenzymatic conversion of PGH2 to PGE2 was performed in the same buffer devoid of enzyme. The reaction mixture was placed on ice until PGE2 production was determined by the PGE2 enzyme immunoassay as described earlier. IC50 values of the inhibitors were calculated by using the GraphPad Prism 4.0 program. The results are set forth in the tables provided in Examples 7-10.

[2] = molecular target: T2, mPGES-1 (Homo sapiens, UniProt O14684); assay: mPGES-1 enzyme activity assay (PGE2 enzyme immunoassay), human enzyme; type: biochemical; parameters: made in house; host or cells: FreeStyle 293-F cells, crude microsomal preparation; details: recombinant microsomal enzyme, means ± SD, triplicate
T2 sequence (O14684 1-152): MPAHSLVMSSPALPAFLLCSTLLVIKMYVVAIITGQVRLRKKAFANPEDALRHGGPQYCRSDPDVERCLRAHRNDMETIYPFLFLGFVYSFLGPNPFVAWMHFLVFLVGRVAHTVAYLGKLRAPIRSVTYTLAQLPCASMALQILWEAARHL
Procedure: as §1, §2, §3, §4

[3] = IC50 against mPGES-1, Human enzyme
[4] = IC50 against mPGES-1, Mouse enzyme
[5] = read-out: IC50 against mPGES-1, Human enzyme
[6] = read-out: IC50 against mPGES-1, Mouse enzyme

## CCCCCCCCCCOc1ccc(-c2nn(-c3ccccc3)cc2C=C2C(=O)NC(=S)NC2=O)cc1 [VI-16]
[1]
  inhibition at 10 µM: 50%
[2]; [3]
  IC50: 188 ± 31 nM

## CCCCCCCOc1ccc(C=C2C(=O)NC(=O)NC2=O)cc1[N+](=O)[O-] [Compound I-40]
[1]; [4]
  IC50: 734 ± 119 nM
[2]; [3]
  IC50: 232 ± 54 nM

## O=C(CCCN1C(=O)C=CC1=O)Nc1ccc2c(c1)Cc1ccccc1-2 [III-01]
[1]
  inhibition at 10 µM: 48%
[2]; [5]
  IC50: 1920 ± 300 nM

## O=C(O)CN1C(=O)S/C(=C2\C(=O)N(CCCCC3CCCCC3)c3ccc(-c4ccccc4)cc32)C1=O [II-26]
[1]; [6]
  IC50: 1130 ± 244 nM
[2]; [5]
  IC50: 13 ± 3 nM

## CN1C(=O)C(=Cc2ccc(OCCCCC3CCCCC3)c([N+](=O)[O-])c2)C(=O)N(C)C1=O [Compound I-20]
[1]
  inhibition at 10 µM: 15%
[2]; [3]
  IC50: 561 ± 55 nM

## CCCCCCCCCCN1C(=O)/C(=C2\SC(=O)N(CC(=O)O)C2=O)c2ccccc21 [II-17]
[1]; [6]
  IC50: 935 ± 135 nM
[2]; [5]
  IC50: 217 ± 30 nM

## CCCCOc1ccc(-c2nn(-c3ccccc3)cc2C=C2C(=O)NC(=O)NC2=O)cc1 [VI-02]
[1]; [4]
  IC50: 2570 ± 628 nM
[2]; [5]
  IC50: 212 ± 34 nM

## O=C(O)CN1C(=O)S/C(=C2\C(=O)N(CC3CCCCC3)c3ccc(-c4ccc(-c5ccccc5)cc4)cc32)C1=O [II-19]
[1]; [6]
  IC50: 1020 ± 162 nM
[2]; [5]
  IC50: 154 ± 20 nM

## CCCCCCCCCCOc1ccc(-c2nn(-c3ccc(Cl)cc3)cc2C=C2C(=O)NC(=S)NC2=O)cc1 [VI-17]
[1]
  inhibition at 10 µM: 56%
[2]; [5]
  IC50: 93 ± 14 nM

## O=C1NC(=O)/C(=C2/C(=O)N(CCCC3CCCCC3)c3ccccc32)S1 [II-28]
[1]
  inhibition at 10 µM: 0%
[2]; [5]
  IC50: 1390 ± 273 nM

## O=C1NC(=O)C(=Cc2ccc(OCCCCc3ccccc3)c(Cl)c2)C(=O)N1 [Compound I-33]
[1]; [4]
  IC50: 2790 ± 525 nM
[2]; [3]
  IC50: 73 ± 10 nM

## O=C(O)CN1C(=O)S/C(=C2\C(=O)N(Cc3ccccc3)c3ccccc32)C1=O [II-01]
[1]
  inhibition at 10 µM: 10%
[2]; [5]
  IC50: 817 ± 79 nM

## CCOc1cc(C=C2C(=O)NC(=O)NC2=O)ccc1OCCCCC1CCCCC1 [Compound I-07]
[1]; [4]
  IC50: 2410 ± 339 nM
[2]; [3]
  IC50: 186 ± 26 nM

## O=C1NC(=O)C(=Cc2ccc(OCCC3CCCCC3)c([N+](=O)[O-])c2)C(=O)N1 [Compound I-37]
[1]; [4]
  IC50: 2390 ± 425 nM
[2]; [3]
  IC50: 517 ± 68 nM

## O=C(O)CN1C(=O)S/C(=C2\C(=O)N(CC3CCCCC3)c3ccc(-c4ccc(C#CC5CCCCC5)cc4)cc32)C1=O [II-22]
[1]; [6]
  IC50: 685 ± 406 nM
[2]; [5]
  IC50: 25 ± 5 nM

## CCCCCCCCN1C(=O)/C(=C2\SC(=O)N(CC(=O)O)C2=O)c2ccccc21 [II-15]
[1]; [6]
  IC50: 2680 ± 302 nM
[2]; [5]
  IC50: 314 ± 44 nM

## COc1cc(C=C2C(=O)NC(=O)NC2=O)cc(I)c1OCCCCC1CCCCC1 [Compound I-11]
[1]; [4]
  IC50: 359 ± 50 nM
[2]; [3]
  IC50: 54 ± 12 nM

## CCCCCCOc1c(Br)cc(C=C(C#N)C#N)cc1OC [Compound V-13]
[1]; [6]
  IC50: 1630 ± 250 nM
[2]; [5]
  IC50: 181 ± 33 nM

## O=C1NC(=O)C(=Cc2ccc(OCCCOc3ccccc3)c(Cl)c2)C(=O)N1 [Compound I-34]
[1]; [4]
  IC50: 8130 ± 1010 nM
[2]; [3]
  IC50: 349 ± 40 nM

## O=C(O)CN1C(=O)/C(=C2\SC(=O)N(CCCCC3CCCCC3)C2=O)c2ccccc21 [II-32]
[1]
  inhibition at 10 µM: 44%
[2]; [5]
  IC50: 2560 ± 442 nM

## CCCCCCCCOc1ccc(-c2nn(-c3ccccc3)cc2/C=C(/C#N)C(=O)O)cc1 [VII-16]
[1]
  inhibition at 10 µM: 46%
[2]; [5]
  IC50: 209 ± 42 nM

## O=C1NC(=O)C(=Cc2cn(-c3ccccc3)nc2-c2ccc(OCc3ccccc3)cc2)C(=O)N1 [VI-09]
[1]
  inhibition at 10 µM: 0%
[2]; [3]
  IC50: 598 ± 142 nM

## O=C(O)CN1C(=O)S/C(=C2\C(=O)N(Cc3ccc(Cl)cc3)c3ccccc32)C1=O [II-02]
[1]
  inhibition at 10 µM: 45%
[2]; [5]
  IC50: 614 ± 63 nM

## O=C1NC(=O)C(=Cc2c(OCCCCC3CCCCC3)ccc3ccccc23)C(=O)N1 [Compound I-16]
[1]; [4]
  IC50: 7040 ± 1850 nM
[2]; [3]
  IC50: 154 ± 18 nM

## CN1C(=O)C(=Cc2ccc(OCCCC3CCCCC3)c([N+](=O)[O-])c2)C(=O)N(C)C1=O [Compound I-29]
[1]
  inhibition at 10 µM: 41%
[2]; [3]
  IC50: 188 ± 21 nM

## O=C(O)CN1C(=O)S/C(=C2\C(=O)N(Cc3ccc(Cl)cc3)c3ccc(-c4ccccc4)cc32)C1=O [II-27]
[1]; [6]
  IC50: 13200 ± 5080 nM
[2]; [5]
  IC50: 54 ± 14 nM

## CCCCCCCCCCOc1ccc(-c2nn(-c3ccc(Cl)cc3)cc2C=C2C(=O)NC(=O)NC2=O)cc1 [VI-08]
[1]
  inhibition at 10 µM: 24%
[2]; [5]
  IC50: 294 ± 83 nM

## CCOc1ccc(-c2nn(-c3ccc(Cl)cc3)cc2C=C2C(=O)NC(=S)NC2=O)cc1 [VI-10]
[1]
  inhibition at 10 µM: 46%
[2]; [5]
  IC50: 95 ± 16 nM

## CCCCOc1ccc(C=C(C#N)C#N)cc1OC [Compound V-22]
[1]; [6]
  IC50: 1770 ± 241 nM
[2]; [5]
  IC50: 348 ± 100 nM

## CCCCCCCOc1ccc(C=C(C#N)C#N)cc1OC [Compound V-35]
[1]; [6]
  IC50: 7290 ± 2550 nM
[2]; [5]
  IC50: 256 ± 33 nM

## CCCCCOc1ccc(C=C2C(=O)NC(=O)NC2=O)cc1[N+](=O)[O-] [Compound I-39]
[1]; [4]
  IC50: 6310 ± 1140 nM
[2]; [3]
  IC50: 460 ± 64 nM

## O=C(O)CN1C(=O)S/C(=C2\C(=O)Nc3ccc(-c4ccccc4)cc32)C1=O [II-23]
[1]
  inhibition at 10 µM: 63%
[2]; [5]
  IC50: 8020 ± 1050 nM

## O=C1NC(=O)C(Cc2ccc(OCCCCC3CCCCC3)c([N+](=O)[O-])c2)C(=O)N1 [Compound I-44]
[1]; [4]
  IC50: 3350 ± 560 nM
[2]; [3]
  IC50: 136 ± 23 nM

## O=C1NC(=O)C(=Cc2cc(Cl)ccc2OCCCCC2CCCCC2)C(=O)N1 [Compound I-13]
[1]
  inhibition at 10 µM: 28%
[2]; [5]
  IC50: 87 ± 27 nM

## O=C(O)CN1C(=O)S/C(=C2\C(=O)N(CC3CCCCC3)c3ccc(-c4ccc5ccccc5c4)cc32)C1=O [II-20]
[1]; [6]
  IC50: 244 ± 31 nM
[2]; [5]
  IC50: 531 ± 90 nM

## CN1C(=O)C(=Cc2ccc(OCCCCC3CCCCC3)c(Cl)c2)C(=O)N(C)C1=O [Compound I-18]
[1]
  inhibition at 10 µM: 8%
[2]; [3]
  IC50: 272 ± 30 nM

## O=C1NC(=O)C(=Cc2ccc(OCCCCC3CCCCC3)c(O)c2)C(=O)N1 [Compound I-05]
[1]; [4]
  IC50: 2900 ± 293 nM
[2]; [3]
  IC50: 116 ± 17 nM

## O=C1NC(=O)C(=Cc2cc(I)ccc2OCCCCC2CCCCC2)C(=O)N1 [Compound I-15]
[1]; [4]
  IC50: 12100 ± 1960 nM
[2]; [3]
  IC50: 135 ± 18 nM

## O=C(O)CN1C(=O)S/C(=C2\C(=O)N(CCCc3ccccc3)c3ccccc32)C1=O [II-04]
[1]; [6]
  IC50: 747 ± 163 nM
[2]; [5]
  IC50: 2400 ± 132 nM

## CCCCCCCCCCOc1ccc(-c2nn(-c3ccc(Cl)cc3)cc2/C=C(/C#N)C(=O)O)cc1 [VII-19]
[1]
  inhibition at 10 µM: 4.6%
[2]; [5]
  IC50: 97 ± 15 nM

## CCCCCCOc1ccc(-c2nn(-c3ccc(Cl)cc3)cc2C=C2C(=O)NC(=S)NC2=O)cc1 [VI-13]
[1]; [4]
  IC50: 1770 ± 1160 nM
[2]; [5]
  IC50: 52 ± 15 nM

## O=C(O)CN1C(=O)S/C(=C2\C(=O)N(CCCC3CCCCC3)c3ccccc32)C1=O [II-08]
[1]; [6]
  IC50: 1520 ± 317 nM
[2]; [5]
  IC50: 253 ± 30 nM

## O=C(O)CN1C(=O)S/C(=C2\C(=O)N(CCCCc3ccccc3)c3ccccc32)C1=O [II-05]
[1]
  inhibition at 10 µM: 61%
[2]; [5]
  IC50: 963 ± 87 nM

## CCCCCN1C(=O)/C(=C2\SC(=O)N(CC(=O)O)C2=O)c2ccccc21 [II-12]
[1]
  inhibition at 10 µM: 35%
[2]; [5]
  IC50: 1660 ± 168 nM
